Test results from patent US20070166547A1, “Use of a layer consisting of hydrophobic linear, or two-dimensional polycyclic aromatics as a barrier layer or an encapsulation and electric components constructed with a layer of this type and comprising organic polymers” (priority 2003, published 2007).

Columns and labels:
[1] = tested on: embyronic fibroblasts of mouse NIH-3T3; experiment: Endocellular pHi of fibroblasts by microspectrofluorimetry (FDA, BCECF-AM); type: cell-based; conditions: 10 mkM in medium with serum
Description: The effect of the compounds according to the invention on the endocellular pH, embyronic fibroblasts of mouse NIH-3T3 supplied by the All-Russian Collection of Cellular Cultures of the Institute of Cytology of the Russian Academy of Sciences St. Petersburg was investigated. The cells were grown in the DMEM (Sigma) medium containing 2.2 g/l of sodium bicarbonate with addition of 80.0 mkg/ml of gentamicin and 10.0% embryonal veal serum at a temperature of 37° C. in an atmosphere containing 5.0% of carbon dioxide. For these experiments use was also made of a medium buffer with 5.0 mM of HEPES and 15.0 mM of sodium bicarbonate without serum or with addition of 5.0% serum. The cells were calculated with the help of a hemocytometer. A share of the dead cells was determined by colouring trypan blue.
The measurements of the endocellular pHi were carried out with the help of colorants FDA (Sigma) and BCECF-AM (Calbiochem) on a microspectrofluorimeter by a standard technique (Koshevoy Yu. V., Akatov V. S., Grobova M. E. Microspectrofluorimeter for measuring endocellular pH (micro pH)”. Devices and equipment for studies in the field of physical-and-chemical biology and biotechnology. Pushchino, 1990. P. 8-14).
The cells at a temperature of 37° C. were colored within 5 minutes with 5.0 mkM PDA that before the colouring was prepared from a 10.0 mM solution in acetone by dilution for 30 minutes in a phosphatic buffer to 0.1 mM or 2.0 mkM 1.0 mM solution BCECF-AM in DMSO.
The two-wave method of determining pHi was used based on the ratio intensities of fluorescence of the cells on two wavelengths (Akatov V. S. et all), “Endocellular pH and substrate dependence of proliferation of fibroblasts of Chinese hamster, Cytology, 1991, 33 (7), p. 86-94). The fluorescence was excited by light at λ=490 nm, the emission was recorded simultaneously with two photomultipliers on wavelengths λ=535 nm and λ=570 nm. The K-ratio of the fluorescence on two wavelengths was determined with a deduction of the background fluorescence of the medium near the investigated cells for 40-60 individual cells, which are then averaged taking into account the measurement error. A thermostatically controlled table was used that allowed measurements to be conducted at a temperature of 37° C. An account was taken for the photodynamic damage of the pigmented cells during-long-time continuous illumination by excited light. The readings were taken from a section of the preparation exposed to light for not more than 5 minutes.
The calibration curves for determining the absolute pHi values by magnitude K were constructed using the Thomas technique (Thomas J. A., Bushbaum R. N., Zimniak A. w Racker E. “Intracellular pH measurements in Ehrlich ascites tumor cells utilizing spectroscopic probe generated in situ”, Biochemistry, 1979, v. 18, p. 2210-2218), for which case the pigmented cells treated for 5-10 minutes with carboxyacidic nigericyn (Calbiochem) at a concentration of 5-10 mkg/ml was placed in a solution with a high content of potassium—130 mM KCl, 1.0 mM MgCl2, 20.0 mM of HEPES) and with pH values from 6.2 to 7.6. The K values were measured in the media with different pH assuming that pHi of the cells equals to the pH of the medium due to the action of nigericyn, which exchanges potassium ions for protons and at a high content of potassium in the medium counterbalances the pH of the medium and cells. Calibration curves were used based on the fluorescence of same medium with addition of 5.0 mkM of fluorescence or BCECF were used to the control the stability of the of the instrument readings.
The correctness of the technique was confirmed in the experiments on measurements of pH values of cells treated with protonofor monencine raising pH of the cells due to replacement of sodium ions by protons, and by determining the dependence of the change of pHi on the change of the pH of the medium. […]

[2] = tested on: embyronic fibroblasts of mouse NIH-3T3; conditions: 1-5 mkM; 15-20 minutes; cells of mice NSO and NIH-3T3; cited from earlier work

## CC[C@@]1([C@@H]2O[C@@H]([C@H]3O[C@@](O)(CO)[C@H](C)C[C@@H]3C)C[C@@H]2C)CC[C@H]([C@]2(C)CC[C@]3(C[C@H](O)[C@@H](C)[C@@H]([C@@H](C)[C@@H](OC)[C@H](C)C(=O)O)O3)O2)O1 [monensine, reference compound]
[1]
  rise of pHi: 0.12 pH unit
[2]
  increase of pHi: 0.2 unit
